For assay [1], the target named is PI3K-p110γ (Homo sapiens, UniProt P48736). Put plainly: Biochemical PI3K-p110γ inhibition.
Assay [2] concerns the target PI3K-p110β (Homo sapiens, UniProt P42338). The assay is described as follows: Biochemical PI3K-p110β inhibition.
Assay [3] addresses PI3K-p110δ (Homo sapiens, UniProt O00329). The assay is described as follows: Biochemical PI3K-p110δ inhibition.
Assay [4] addresses PI3K-p110 α (Homo sapiens, UniProt P42336). Put plainly: Biochemical PI3K-p110α inhibition.

Where two headings read alike, the source gives them in different places.

Sequence of PI3K-p110β (P42338 whole entry): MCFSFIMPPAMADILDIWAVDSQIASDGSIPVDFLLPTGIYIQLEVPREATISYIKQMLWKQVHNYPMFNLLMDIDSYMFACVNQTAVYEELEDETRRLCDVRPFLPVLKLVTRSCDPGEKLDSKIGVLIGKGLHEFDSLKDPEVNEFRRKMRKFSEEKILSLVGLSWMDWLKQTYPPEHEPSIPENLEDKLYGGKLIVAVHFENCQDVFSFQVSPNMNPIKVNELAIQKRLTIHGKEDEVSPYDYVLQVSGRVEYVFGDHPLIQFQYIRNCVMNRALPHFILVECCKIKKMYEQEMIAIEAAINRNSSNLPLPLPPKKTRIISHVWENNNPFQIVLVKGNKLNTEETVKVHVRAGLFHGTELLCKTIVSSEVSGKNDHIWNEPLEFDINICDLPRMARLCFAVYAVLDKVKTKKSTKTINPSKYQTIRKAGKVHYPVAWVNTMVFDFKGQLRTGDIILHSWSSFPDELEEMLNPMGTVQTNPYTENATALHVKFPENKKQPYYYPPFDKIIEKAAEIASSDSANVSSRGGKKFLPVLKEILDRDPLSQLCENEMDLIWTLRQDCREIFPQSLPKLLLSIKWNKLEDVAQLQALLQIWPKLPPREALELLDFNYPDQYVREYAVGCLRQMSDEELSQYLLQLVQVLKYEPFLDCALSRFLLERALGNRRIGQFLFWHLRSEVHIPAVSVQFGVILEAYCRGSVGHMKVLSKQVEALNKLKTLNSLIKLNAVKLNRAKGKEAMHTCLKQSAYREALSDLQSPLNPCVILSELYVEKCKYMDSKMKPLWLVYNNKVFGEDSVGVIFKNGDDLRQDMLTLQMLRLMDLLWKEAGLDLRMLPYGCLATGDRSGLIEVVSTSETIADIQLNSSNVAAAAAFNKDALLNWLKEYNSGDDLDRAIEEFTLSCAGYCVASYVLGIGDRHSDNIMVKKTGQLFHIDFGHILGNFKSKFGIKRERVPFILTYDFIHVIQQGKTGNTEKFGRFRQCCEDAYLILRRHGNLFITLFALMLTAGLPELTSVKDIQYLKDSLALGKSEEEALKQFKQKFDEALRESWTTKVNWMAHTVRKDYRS
Sequence of PI3K-p110β (P27986 whole entry partner): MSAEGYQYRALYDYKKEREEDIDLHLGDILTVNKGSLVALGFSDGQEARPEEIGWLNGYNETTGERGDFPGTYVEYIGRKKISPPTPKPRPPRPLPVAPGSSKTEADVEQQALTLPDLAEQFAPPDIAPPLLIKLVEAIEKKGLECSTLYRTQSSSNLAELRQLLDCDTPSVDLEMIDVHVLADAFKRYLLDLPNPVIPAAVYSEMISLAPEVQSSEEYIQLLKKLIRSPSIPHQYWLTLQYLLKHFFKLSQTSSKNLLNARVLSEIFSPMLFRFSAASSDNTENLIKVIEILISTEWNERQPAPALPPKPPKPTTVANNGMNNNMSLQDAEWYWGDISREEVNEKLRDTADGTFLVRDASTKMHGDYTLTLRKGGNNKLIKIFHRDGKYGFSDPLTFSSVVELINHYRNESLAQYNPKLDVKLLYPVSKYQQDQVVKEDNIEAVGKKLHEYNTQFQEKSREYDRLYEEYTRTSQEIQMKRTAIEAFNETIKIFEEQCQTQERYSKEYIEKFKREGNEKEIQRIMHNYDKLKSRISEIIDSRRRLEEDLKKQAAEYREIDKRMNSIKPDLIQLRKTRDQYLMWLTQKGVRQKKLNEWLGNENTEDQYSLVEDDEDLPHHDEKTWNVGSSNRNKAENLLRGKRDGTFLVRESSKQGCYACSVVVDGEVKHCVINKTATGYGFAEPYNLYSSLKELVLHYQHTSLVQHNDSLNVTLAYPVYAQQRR
Sequence of PI3K-p110γ (P48736 whole entry): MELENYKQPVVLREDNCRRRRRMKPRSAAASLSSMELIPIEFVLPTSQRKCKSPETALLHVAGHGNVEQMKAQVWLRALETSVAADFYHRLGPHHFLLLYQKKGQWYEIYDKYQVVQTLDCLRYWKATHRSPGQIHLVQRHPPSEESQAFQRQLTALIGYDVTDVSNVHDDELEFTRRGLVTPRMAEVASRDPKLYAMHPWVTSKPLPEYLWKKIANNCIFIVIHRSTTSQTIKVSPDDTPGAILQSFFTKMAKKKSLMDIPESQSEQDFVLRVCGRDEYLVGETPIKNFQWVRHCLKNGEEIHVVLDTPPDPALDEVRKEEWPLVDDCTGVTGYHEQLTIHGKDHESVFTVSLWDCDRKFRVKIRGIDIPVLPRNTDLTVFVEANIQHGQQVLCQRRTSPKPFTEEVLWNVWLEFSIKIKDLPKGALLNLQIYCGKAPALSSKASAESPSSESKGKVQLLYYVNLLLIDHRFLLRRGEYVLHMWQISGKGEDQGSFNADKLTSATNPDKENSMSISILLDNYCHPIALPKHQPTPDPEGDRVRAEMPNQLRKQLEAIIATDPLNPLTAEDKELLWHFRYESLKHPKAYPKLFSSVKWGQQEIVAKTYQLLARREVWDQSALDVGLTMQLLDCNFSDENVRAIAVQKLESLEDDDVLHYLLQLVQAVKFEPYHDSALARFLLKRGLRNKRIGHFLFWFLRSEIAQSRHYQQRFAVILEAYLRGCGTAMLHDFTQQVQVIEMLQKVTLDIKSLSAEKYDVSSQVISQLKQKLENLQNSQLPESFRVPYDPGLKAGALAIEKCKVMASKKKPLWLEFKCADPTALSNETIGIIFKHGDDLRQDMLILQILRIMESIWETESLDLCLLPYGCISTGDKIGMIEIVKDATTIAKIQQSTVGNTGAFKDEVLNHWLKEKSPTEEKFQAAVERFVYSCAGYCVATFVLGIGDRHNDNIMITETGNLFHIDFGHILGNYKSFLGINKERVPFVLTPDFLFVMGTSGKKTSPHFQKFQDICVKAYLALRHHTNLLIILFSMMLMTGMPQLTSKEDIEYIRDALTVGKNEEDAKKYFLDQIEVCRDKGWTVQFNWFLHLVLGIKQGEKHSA
Sequence of PI3K-p110 α (P42336 whole entry): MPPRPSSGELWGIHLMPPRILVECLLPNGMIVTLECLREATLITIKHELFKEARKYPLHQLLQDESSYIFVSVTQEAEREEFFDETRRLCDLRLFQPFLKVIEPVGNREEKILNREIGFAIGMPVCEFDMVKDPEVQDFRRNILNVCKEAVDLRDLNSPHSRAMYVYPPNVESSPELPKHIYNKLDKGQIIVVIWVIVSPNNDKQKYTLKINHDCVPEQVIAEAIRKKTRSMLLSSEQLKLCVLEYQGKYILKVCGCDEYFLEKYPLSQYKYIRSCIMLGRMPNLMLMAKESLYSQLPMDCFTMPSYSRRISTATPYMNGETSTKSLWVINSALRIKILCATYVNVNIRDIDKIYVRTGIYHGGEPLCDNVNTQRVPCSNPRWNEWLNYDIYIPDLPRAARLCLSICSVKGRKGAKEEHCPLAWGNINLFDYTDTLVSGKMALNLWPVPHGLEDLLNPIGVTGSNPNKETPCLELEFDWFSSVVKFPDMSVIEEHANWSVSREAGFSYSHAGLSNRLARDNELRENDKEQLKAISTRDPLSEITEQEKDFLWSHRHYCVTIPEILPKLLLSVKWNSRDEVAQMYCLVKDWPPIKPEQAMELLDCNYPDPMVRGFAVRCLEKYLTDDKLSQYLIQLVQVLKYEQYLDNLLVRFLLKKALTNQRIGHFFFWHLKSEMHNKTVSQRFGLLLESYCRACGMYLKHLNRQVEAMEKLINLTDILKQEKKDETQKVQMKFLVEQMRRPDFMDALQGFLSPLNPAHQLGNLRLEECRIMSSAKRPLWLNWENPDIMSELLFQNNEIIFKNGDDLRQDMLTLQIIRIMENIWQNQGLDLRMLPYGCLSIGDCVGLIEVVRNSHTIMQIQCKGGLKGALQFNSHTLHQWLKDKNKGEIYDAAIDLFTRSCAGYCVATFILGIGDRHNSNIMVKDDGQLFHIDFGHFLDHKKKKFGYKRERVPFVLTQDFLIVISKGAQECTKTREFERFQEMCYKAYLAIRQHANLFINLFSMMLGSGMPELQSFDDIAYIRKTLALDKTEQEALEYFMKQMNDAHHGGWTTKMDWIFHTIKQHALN
Sequence of PI3K-p110 α (P27986 whole entry partner): as the sequence (P27986 whole entry partner) above
Sequence of PI3K-p110δ (O00329 whole entry): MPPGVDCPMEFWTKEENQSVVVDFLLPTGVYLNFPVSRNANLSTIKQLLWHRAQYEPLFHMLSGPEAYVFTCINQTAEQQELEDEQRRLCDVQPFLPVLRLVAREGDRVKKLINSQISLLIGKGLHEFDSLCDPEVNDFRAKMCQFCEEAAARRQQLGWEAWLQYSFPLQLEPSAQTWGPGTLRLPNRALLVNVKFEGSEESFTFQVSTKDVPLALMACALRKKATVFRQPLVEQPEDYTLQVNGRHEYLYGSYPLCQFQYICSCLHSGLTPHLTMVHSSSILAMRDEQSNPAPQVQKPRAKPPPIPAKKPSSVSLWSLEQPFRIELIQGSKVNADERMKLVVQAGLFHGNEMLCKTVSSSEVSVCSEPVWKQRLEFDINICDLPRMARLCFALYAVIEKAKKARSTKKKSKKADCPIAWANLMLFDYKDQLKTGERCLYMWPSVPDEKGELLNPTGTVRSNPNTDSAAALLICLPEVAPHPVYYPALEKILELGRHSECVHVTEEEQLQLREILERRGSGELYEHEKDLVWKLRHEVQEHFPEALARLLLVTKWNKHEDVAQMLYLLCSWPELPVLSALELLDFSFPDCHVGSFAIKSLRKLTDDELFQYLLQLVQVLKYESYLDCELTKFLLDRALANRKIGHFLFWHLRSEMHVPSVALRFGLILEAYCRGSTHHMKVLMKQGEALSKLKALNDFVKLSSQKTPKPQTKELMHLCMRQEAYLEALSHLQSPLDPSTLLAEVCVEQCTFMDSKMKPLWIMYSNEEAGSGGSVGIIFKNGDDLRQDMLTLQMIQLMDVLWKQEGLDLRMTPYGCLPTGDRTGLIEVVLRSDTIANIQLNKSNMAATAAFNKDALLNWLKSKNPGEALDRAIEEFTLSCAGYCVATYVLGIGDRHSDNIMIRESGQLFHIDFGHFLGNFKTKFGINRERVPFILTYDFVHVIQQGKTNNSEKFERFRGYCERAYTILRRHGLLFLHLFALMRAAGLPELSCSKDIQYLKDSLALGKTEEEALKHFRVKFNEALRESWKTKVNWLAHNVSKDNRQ
Sequence of PI3K-p110δ (P27986 whole entry partner): as the sequence (P27986 whole entry partner) above

Turning to `Nc1ccc(-c2cccc3c(=O)nc(N4CCOCC4)oc23)cc1` [Compound A, 8-(4-aminophenyl)-2-morpholino-4H-benzo[e][1,3]oxazin-4-one], the IC50 in assay [1] (Class IB enzyme, read-out: IC50 PI3K-p110γ (uM) (Class IB Enzyme)) worked out at 20.5 µM; in assay [2] (Class IA enzyme, read-out: IC50 PI3K-p110β (uM) (Class IA Enzyme)) it was 2.34 µM. In addition, in assay [2] (compared with industry-standard inhibitor LY294002, p110β vs p110γ), the “class IA/IB PI3K selectivity” value was “greater class IA/IB PI3K selectivity compared with industry-standard inhibitor, LY294002”.
Take `Nc1ccc(-c2cccc3c(=O)nc(N4CCOCC4)oc23)c(F)c1` [Compound B, 8-(4-Amino-2-fluoro-phenyl)-2-morpholin-4-yl-benzo[e][1,3]oxazin-4-one]: the IC50 worked out at 1.69 µM in assay [3], 17.8 µM in assay [1] (read-out: IC50 PI3K-p110γ), 0.538 µM in assay [2] (read-out: IC50 PI3K-p110β) and 3.41 µM in assay [4]. Moreover, the “selectivity for PI3K-p110β” value in assay [2] (versus p110α, p110δ, p110γ) was “displays selectivity for PI3K-p110β”.

Source of the values: US8981087B2, “Benzo [E] [1,3] oxazin-4-one derivatives as phosphoinositide 3-kinase inhibitors” (Karus Therapeutics Limited, priority 2009, dated 2015).
